Patent US9162219B2, “Fenton reaction catalyst produced using reducing organic substance as raw material” (INCORPORATED ADMINISTRATIVE AGENCY, NATIONAL AGRICULTURE …, priority 2011, dated 2015)

What was measured:
Escherichia coli = details: 10 mM hydrogen peroxide, 1.0x10^6 cfu/mL, 10 minutes of treatment, TTC medium plate
[1] = Ability to catalyze Fenton reaction, luminol reaction observed by eye; details: reaction product solution added to 100 ml luminol solution (1 g/L luminol, 4 g/L sodium hydroxide, 0.3% hydrogen peroxide)
Excerpt: With respect to the reaction products of the samples, which were confirmed to have iron reducing effects in Example 1, and iron, the fact that the reaction products have abilities to catalyze the Fenton reaction was examined by a luminol reaction.
It should be noted that the luminol reaction means a luminescence reaction caused by oxidizing luminol by generation of hydroxyl radicals.
Small amounts of the aqueous solutions containing the reaction products prepared in Example 1 were each added to 100 ml of a luminol solution (1 g/L luminol, 4 g/L sodium hydroxide, 0.3% hydrogen peroxide), and the presence or absence of luminescence was observed.

[2] = Luminol reaction, amount of luminescence (hydroxyl radicals generated) measured with AB-2270 Luminescencer Octa
Method: In the step of preparing the reaction products of the samples and iron, the ability to catalyze the Fenton reaction was examined with different mixing ratios of the samples to iron.
The above-mentioned samples were each mixed with iron (III) chloride (1 mM FeCl3) at different mixing ratios as shown in FIG. 2 to prepare reaction products in the same manner as in Example 1.
(§1) Then, for each of the aqueous solutions containing the reaction products, the amount of luminescence (amount of hydroxyl radicals generated) provided by the luminol reaction was measured using the AB-2270 Luminescencer Octa to determine the ability of the reaction products to catalyze the Fenton reaction. […]
The above-mentioned samples were added to different concentrations of iron (III) chloride (0.02, 0.1, 0.2, 1, 5, and 10 mM) at the optimum mixing ratios determined in Example 3 (ascorbic acid: 0.5 mM, squeezed grape juice: 40 mg/L in terms of total polyphenols, chaff vinegar stock solution: 50 g/L, with respect to 1 mM FeCl3) to prepare reaction products in the same manner as in Example 1.
as §1

## OO [hydrogen peroxide]
Escherichia coli
  sterilization effect (survival of Escherichia coli): a large amount of Escherichia coli survived

## O=C1O[C@H]([C@@H](O)CO)C(O)=C1O [Sample 1, ascorbic acid]
[1]
  presence or absence of luminescence: blue fluorescence was observed
[2]; reaction products with iron at optimum mixing ratios and concentrations (Example 5)
  ability to catalyze the Fenton reaction: very high
[2]; with respect to 1 mM FeCl3
  optimum mixing concentration for ability to catalyze the Fenton reaction: about 0.5 mM
